Measured values taken from ChEMBL document CHEMBL1201862, “PubChem BioAssay data set” (2004).
Active and inactive are the calls of the source.

Key:
[1] = Vero cell cytotoxicity, cytotoxicity control for M. tuberculosis inhibitor project, purified and synthesized samples, set 3 (AID 504684); format: functional
[2] = THP-1 cell cytotoxicity, cytotoxicity control, set 4 (AID 504911); format: functional; conditions: Mycobacterium tuberculosis
[3] = THP-1 cell cytotoxicity, dose response, cytotoxicity control, set 3 (AID 504852); format: functional; conditions: Mycobacterium tuberculosis
[4] = Vero cell cytotoxicity, dose response, cytotoxicity control for M. tuberculosis growth inhibitor project, Vero cells, purified and synthesized compounds, set 4 (AID 504854); format: functional; conditions: Mycobacterium tuberculosis
[5] = biological target: Phospholipase D2 (Homo sapiens, UniProt O14939); test: cellular phospholipase D2 inhibition IC50 – cell-based, dose response (AID 602147); format: functional;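 further: cellular assay in HEK293 cells overexpressing GFP-tagged PLD2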
[6] = biological target: Phospholipase D1 (Homo sapiens, UniProt Q13393); test: cellular phospholipase D1 inhibition IC50 – cell-based, dose response (AID 602151); format: functional;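 further: cellular PLD1 assay in Calu-1 cells stimulated with PMA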
[7] = biological target: Protein disulfide-isomerase (Homo sapiens, UniProt P07237); test: inhibition of PDI-driven insulin aggregation – biochemical, turbidity, absorbance, cherry-picked samples, dose response (AID 602350); format: functional
[8] = biological target: Dual specificity tyrosine-phosphorylation-regulated kinase 1A (Rattus norvegicus, UniProt Q63470); format: biochemical, Homo sapiens
[9] = biological target: T1, Insulin-degrading enzyme (Homo sapiens, UniProt P14735); test: recombinant IDE activation, cell-free – biochemical, fluorescence polarization, counter-screen for IDE activator project, dose response (AID 588681)
[10] = biological target: T2, Carboxy-terminal domain RNA polymerase II polypeptide A small phosphatase 1 (Homo sapiens, UniProt Q9GZU7); test: CTDSP1 inhibitors, concentration-response, biochemical, absorbance readout, ultra-high-throughput screen actives (AID 540297); format: functional
T2 sequence (Q9GZU7 whole entry): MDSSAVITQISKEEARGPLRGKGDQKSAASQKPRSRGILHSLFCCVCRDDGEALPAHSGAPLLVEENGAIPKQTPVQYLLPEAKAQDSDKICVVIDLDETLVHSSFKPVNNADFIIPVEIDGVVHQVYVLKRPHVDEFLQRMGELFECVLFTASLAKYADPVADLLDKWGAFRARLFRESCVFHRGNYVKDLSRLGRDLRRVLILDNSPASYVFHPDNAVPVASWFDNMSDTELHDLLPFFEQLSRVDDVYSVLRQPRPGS

[11] = biological target: T1, Insulin-degrading enzyme; test: cellular IDE activation of Abeta substrate cleavage – fluorescence polarization, HEK cells, dose response (AID 588439); format: functional, cell-based
[12] = system: HEK293; test: optical interference in Abeta FP readout, dose response, artefact control for IDE activator project, biochemical, fluorescence polarization (AID 588442); format: functional, cell-based; conditions: Homo sapiens
[13] = system: HEK293; test: membrane integrity loss in HEK cells – cell-based, fluorescence, cytotoxicity control for IDE activator project, dose response (AID 588440); format: functional; conditions: Homo sapiens;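 further: cytotoxicity by LDH release measuring loss of membrane integrity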
[14] = biological target: Potassium voltage-gated channel subfamily KQT member 2 (Rattus norvegicus, UniProt O88943); test: Mode of action assay-Dose response assay for compounds that activate KCNQ2 potassium channels on automated patch clamp. [Related pubchem assays (depositor defined):AID2239, AID2258, AID2287, AID493113]; format: functional
[15] = activation of human KCNQ1/KCNE1 current – automated patch clamp, CHO cells, selectivity assay for KCNQ2 activator project, dose response (AID 493042); format: functional
[16] = biological target: Potassium voltage-gated channel subfamily KQT member 2/member 3 (Rattus norvegicus, UniProt O88943+O88944); test: Mode of action assay-Dose response assay for KCNQ2 activators in the KCNQ2/KCNQ3 co-expressing cells on automated patch clamp. [Related pubchem assays (depositor defined):AID2239, AID2258, AID2287]; format: functional
[17] = KCNQ1 potentiation selectivity check – automated patch clamp, KCNQ1-CHO cells, selectivity assay for KCNQ2 activator project, dose response (AID 493044); format: functional, cell-based
[18] = biological target: T3, Potassium voltage-gated channel subfamily KQT member 4 (Homo sapiens, UniProt P56696); test: activation of KCNQ4 potassium current – automated patch clamp, CHO cells, selectivity assay for KCNQ2 activator project, dose response (AID 493043); format: functional, cell-based
[19] = biological target: T3, Potassium voltage-gated channel subfamily KQT member 4; test: KCNQ4 thallium flux concentration-response – KCNQ4-expressing cells, selectivity assay for KCNQ2 activator project, dose response (AID 504416); format: functional, cell-based
[20] = general mammalian cell viability loss – activator set, cherry-pick, cytotoxicity control for miR-122 modulator project, dose response (AID 720690); format: functional, cell-based;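 further: HEK293T human cells scored for general mammalian cytotoxicity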
[21] = biological target: 5-hydroxytryptamine receptor 5A (Homo sapiens, UniProt P47898); test: Counterscreen for agonists of OPRM1-OPRD1 heterodimerization: luminescence-based cell-based high throughput dose response assay to identify agonists of 5-hydroxytryptamine (serotonin) 5A receptor (HTR5A). [Related pubchem assays (depositor defined):AID504326, AID504355, AID504692, AID504904, AID504905]; format: functional
[22] = biological target: Delta-type opioid receptor (Homo sapiens, UniProt P41143); test: Counterscreen for agonists of heterodimerization of the mu 1 (OPRM1) and delta 1 (OPRD1) opioid receptors: Luminescence-based cell-based high throughput dose response assay to identify agonists of OPRD1 homodimerization. [Related pubchem assays (depositor defined):AID504326, AID504355, AID504692, AID504904, AID504905]; format: functional
[23] = biological target: Mu-type opioid receptor (Homo sapiens, UniProt P35372); test: Counterscreen for agonists of heterodimerization of the mu 1 (OPRM1) and delta 1 (OPRD1) opioid receptors: Luminescence-based cell-based high throughput dose response assay to identify agonists of OPRM1 homodimerization.; format: functional;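 further: U2OS cells expressing OPRM1 and beta-arrestin as split beta-galactosidase partners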
[24] = biological target: T4, High affinity choline transporter 1 (Homo sapiens, UniProt Q9GZV3); test: human choline transporter potentiators, potency – cell-based, 10-point CRC, membrane potential dye, dose response (AID 602376); format: functional
T4 sequence (Q9GZV3 whole entry): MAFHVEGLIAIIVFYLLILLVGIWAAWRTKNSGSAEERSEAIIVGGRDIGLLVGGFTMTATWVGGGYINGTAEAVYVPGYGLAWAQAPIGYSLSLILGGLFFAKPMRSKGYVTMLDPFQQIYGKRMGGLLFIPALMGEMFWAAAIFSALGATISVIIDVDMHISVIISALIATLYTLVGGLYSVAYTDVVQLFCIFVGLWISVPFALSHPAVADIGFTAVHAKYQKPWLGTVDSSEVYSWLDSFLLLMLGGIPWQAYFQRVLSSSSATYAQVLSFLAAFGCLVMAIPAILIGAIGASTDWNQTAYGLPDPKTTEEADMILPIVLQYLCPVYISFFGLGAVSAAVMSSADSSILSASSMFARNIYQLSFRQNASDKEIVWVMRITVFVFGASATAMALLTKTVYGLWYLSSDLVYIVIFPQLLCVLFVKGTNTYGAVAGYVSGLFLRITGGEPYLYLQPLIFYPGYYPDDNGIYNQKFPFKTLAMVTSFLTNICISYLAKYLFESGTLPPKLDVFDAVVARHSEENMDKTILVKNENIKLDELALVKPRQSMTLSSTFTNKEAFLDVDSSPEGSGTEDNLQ

[25] = biological target: Sphingosine 1-phosphate receptor 2 (Homo sapiens, UniProt O95136); test: Late-stage fluorescence-based dose-response cell-based counterscreen assay to identify agonists of the Sphingosine 1-Phosphate Receptor 3 (S1P3): Sphingosine 1-Phosphate Receptor 2 (S1P2) agonist assay.; format: functional
[26] = biological target: Sphingosine 1-phosphate receptor 4 (Homo sapiens, UniProt O95977); test: Late-stage fluorescence-based dose-response cell-based counterscreen assay to identify agonists of the Sphingosine 1-Phosphate Receptor 3 (S1P3): Sphingosine 1-Phosphate Receptor 4 (S1P4) agonist assay.; format: functional
[27] = system: Jurkat; test: SAR Analysis of small molecule inhibitors of T-cell specific antigen receptor-induced NF-kB activation in a Jurkat cell line using a luminescence assay. [Related pubchem assays (depositor defined):AID435003, AID435012, AID465]; format: functional, cell-based; conditions: Homo sapiens
[28] = system: HEK293; test: SAR Analysis of small molecule inhibitors of T-cell specific antigen receptor-induced NF-kB activation in a HEK-293T cell line using a luminescence assay. [Related pubchem assays (depositor defined):AID435003, AID435012, AID489026]; format: functional, cell-based; conditions: Homo sapiens
[29] = system: HEK293; test: HEK293T cell viability loss, resazurin readout – resazurin fluorescence, cytotoxicity control for NF-kB activator project, SAR follow-up (AID 493251); format: functional, cell-based; conditions: Homo sapiens
[30] = biological target: Tyrosine-protein kinase ABL1 (Homo sapiens, UniProt P00519); format: functional
[31] = biological target: Macrophage colony-stimulating factor 1 receptor (Homo sapiens, UniProt P07333); format: functional;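 further: value comes from the Navigating the Kinome screening panel, CSF1R member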
[32] = biological target: Vascular endothelial growth factor receptor 1 (Homo sapiens, UniProt P17948); format: functional;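 further: measured within a kinome-wide profiling panel, FLT1 as the panel member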
[33] = biological target: Mast/stem cell growth factor receptor Kit (Homo sapiens, UniProt P10721); format: functional;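 further: KIT entry within a kinase panel assay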
[34] = biological target: Tyrosine-protein kinase Fyn (Homo sapiens, UniProt P06241); format: functional
[35] = biological target: Vascular endothelial growth factor receptor 2 (Homo sapiens, UniProt P35968); format: functional
[36] = biological target: Proto-oncogene tyrosine-protein kinase Src (Homo sapiens, UniProt P12931); format: functional;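 further: SRC entry within a kinome-wide kinase profiling panel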
[37] = biological target: Tyrosine-protein kinase Lck (Homo sapiens, UniProt P06239); format: functional;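 further: lck was assayed as one member of a kinase panel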
[38] = biological target: Tyrosine-protein kinase Blk (Homo sapiens, UniProt P51451); format: functional;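 further: obtained as one member of a kinome-wide kinase assay panel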
[39] = biological target: Vascular endothelial growth factor receptor 3 (Homo sapiens, UniProt P35916); format: functional;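 further: value from a kinome-wide profiling panel, with FLT4 as the panel member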
[40] = biological target: Receptor-type tyrosine-protein kinase FLT3 (Homo sapiens, UniProt P36888); format: functional;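 further: FLT3 was tested as one member of a kinome-wide kinase panel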
[41] = biological target: Tyrosine-protein kinase Lyn (Homo sapiens, UniProt P07948); format: functional;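 further: lyn as one member of a kinase panel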

T3 sequence (P56696 whole entry): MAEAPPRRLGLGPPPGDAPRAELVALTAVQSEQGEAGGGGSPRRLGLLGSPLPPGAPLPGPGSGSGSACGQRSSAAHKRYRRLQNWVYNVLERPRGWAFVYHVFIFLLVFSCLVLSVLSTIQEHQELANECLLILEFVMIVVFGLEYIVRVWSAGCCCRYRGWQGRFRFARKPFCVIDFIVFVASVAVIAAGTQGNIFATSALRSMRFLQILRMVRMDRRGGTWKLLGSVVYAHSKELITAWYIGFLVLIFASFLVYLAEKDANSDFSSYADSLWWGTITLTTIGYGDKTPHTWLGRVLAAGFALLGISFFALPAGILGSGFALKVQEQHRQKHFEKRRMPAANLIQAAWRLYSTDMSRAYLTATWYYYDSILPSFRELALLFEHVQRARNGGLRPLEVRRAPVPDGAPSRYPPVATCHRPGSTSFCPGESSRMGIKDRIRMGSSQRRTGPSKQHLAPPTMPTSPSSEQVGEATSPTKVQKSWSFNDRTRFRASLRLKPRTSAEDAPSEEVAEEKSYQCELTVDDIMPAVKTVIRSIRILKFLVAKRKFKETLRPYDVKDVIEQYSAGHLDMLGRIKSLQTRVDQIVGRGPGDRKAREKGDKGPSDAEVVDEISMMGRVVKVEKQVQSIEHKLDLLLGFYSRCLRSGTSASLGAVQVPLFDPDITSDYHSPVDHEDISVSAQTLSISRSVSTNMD
T1 sequence (P14735 whole entry, the tested form may be a part): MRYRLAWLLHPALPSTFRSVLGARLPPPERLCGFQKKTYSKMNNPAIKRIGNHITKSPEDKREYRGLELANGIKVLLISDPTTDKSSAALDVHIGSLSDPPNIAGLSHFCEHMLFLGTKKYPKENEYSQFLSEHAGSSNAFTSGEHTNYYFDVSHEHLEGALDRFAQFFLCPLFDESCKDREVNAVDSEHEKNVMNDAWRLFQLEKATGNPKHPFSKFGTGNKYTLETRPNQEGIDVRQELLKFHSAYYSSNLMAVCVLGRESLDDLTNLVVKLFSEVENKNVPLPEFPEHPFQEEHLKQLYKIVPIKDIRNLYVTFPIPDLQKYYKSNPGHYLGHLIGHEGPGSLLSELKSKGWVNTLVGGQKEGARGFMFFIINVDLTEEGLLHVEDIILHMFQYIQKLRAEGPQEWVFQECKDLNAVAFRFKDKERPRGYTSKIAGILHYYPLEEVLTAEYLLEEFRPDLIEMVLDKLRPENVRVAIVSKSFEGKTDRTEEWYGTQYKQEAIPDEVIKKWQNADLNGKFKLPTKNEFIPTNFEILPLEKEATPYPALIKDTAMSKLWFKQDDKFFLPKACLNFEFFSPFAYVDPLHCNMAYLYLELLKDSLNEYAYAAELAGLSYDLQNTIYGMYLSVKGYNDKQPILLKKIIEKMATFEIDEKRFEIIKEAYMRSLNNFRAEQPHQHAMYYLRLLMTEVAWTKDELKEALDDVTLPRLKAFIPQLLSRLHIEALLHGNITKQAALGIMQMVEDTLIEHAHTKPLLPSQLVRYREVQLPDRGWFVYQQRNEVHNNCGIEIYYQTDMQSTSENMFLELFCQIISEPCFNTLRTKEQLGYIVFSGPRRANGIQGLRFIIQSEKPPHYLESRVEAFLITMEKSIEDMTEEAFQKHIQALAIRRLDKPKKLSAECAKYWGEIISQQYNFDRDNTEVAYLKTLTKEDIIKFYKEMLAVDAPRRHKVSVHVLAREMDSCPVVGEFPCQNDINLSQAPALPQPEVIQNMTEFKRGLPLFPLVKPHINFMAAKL
Sequence of Tyrosine-protein kinase Fyn (P06241 whole entry): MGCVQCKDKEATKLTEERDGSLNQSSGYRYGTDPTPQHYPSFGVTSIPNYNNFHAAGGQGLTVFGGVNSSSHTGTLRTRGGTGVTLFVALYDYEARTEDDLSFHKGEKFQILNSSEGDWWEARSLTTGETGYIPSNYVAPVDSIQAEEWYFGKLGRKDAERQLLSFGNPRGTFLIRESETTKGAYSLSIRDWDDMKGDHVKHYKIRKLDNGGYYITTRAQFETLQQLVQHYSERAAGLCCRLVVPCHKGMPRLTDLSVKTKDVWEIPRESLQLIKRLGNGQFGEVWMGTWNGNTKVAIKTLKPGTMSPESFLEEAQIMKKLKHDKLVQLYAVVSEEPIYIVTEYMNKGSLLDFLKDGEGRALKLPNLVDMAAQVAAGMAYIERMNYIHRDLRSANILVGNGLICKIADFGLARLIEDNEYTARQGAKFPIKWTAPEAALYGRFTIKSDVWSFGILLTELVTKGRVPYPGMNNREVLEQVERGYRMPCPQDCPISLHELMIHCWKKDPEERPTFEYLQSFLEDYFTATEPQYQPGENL
Sequence of Tyrosine-protein kinase Lck (P06239 whole entry): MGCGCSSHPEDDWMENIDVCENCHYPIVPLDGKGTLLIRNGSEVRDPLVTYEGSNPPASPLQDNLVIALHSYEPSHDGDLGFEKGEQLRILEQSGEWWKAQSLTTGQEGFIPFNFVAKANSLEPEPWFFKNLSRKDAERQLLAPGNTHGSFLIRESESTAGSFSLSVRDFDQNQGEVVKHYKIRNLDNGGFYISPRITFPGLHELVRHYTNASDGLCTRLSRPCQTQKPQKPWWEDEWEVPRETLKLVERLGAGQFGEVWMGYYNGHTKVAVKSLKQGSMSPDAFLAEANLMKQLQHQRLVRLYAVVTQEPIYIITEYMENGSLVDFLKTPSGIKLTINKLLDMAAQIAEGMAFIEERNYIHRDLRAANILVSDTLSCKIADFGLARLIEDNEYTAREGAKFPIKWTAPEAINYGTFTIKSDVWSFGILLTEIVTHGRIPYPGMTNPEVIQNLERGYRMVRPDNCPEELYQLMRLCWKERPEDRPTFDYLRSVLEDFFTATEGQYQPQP
Sequence of Phospholipase D1 (Q13393 whole entry): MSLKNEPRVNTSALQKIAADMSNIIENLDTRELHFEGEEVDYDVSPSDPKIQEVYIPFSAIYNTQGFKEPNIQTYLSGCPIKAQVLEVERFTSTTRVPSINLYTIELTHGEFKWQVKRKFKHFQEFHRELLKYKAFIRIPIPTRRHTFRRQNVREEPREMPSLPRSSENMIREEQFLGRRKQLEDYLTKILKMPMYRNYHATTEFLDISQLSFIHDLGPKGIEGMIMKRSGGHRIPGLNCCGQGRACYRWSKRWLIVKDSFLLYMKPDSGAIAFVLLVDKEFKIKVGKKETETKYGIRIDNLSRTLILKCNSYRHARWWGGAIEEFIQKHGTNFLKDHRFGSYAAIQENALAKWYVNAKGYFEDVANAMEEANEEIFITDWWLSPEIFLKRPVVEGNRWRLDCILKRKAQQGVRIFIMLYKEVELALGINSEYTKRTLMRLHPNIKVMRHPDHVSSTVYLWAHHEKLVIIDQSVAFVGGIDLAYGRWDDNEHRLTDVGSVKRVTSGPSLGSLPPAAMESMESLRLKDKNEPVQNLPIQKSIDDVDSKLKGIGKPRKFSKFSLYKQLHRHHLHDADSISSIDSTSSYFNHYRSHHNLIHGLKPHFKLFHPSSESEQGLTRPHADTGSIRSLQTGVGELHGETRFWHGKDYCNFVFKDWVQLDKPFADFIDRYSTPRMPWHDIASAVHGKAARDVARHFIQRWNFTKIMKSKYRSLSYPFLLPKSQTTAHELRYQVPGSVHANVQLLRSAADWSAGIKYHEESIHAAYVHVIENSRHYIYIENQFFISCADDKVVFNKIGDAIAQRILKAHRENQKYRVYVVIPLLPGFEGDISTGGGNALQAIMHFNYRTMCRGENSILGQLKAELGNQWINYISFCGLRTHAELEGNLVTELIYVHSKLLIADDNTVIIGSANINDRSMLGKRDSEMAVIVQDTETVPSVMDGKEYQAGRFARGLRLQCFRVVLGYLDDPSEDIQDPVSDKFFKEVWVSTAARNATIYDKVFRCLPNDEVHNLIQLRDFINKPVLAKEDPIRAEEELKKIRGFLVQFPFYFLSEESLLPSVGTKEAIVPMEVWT
Sequence of Sphingosine 1-phosphate receptor 2 (O95136 whole entry): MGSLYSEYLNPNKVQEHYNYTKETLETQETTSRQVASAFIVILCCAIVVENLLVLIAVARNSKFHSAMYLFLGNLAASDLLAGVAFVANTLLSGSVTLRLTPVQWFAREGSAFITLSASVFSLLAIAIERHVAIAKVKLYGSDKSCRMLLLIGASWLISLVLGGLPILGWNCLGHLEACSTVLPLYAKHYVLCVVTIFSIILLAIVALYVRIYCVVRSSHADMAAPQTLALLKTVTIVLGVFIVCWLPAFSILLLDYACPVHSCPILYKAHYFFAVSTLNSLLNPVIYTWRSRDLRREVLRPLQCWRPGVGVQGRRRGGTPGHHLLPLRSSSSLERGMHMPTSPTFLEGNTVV
Sequence of Delta-type opioid receptor (P41143 whole entry): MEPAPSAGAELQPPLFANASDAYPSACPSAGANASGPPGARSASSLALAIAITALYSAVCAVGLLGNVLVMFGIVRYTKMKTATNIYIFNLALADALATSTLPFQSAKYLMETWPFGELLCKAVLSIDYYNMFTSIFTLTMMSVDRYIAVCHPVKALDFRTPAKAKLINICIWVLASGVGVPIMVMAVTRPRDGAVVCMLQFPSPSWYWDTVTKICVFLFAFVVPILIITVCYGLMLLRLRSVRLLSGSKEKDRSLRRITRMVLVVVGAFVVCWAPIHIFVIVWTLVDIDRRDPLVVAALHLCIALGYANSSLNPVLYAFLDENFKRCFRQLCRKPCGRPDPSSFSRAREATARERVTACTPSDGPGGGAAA
Sequence of Sphingosine 1-phosphate receptor 4 (O95977 whole entry): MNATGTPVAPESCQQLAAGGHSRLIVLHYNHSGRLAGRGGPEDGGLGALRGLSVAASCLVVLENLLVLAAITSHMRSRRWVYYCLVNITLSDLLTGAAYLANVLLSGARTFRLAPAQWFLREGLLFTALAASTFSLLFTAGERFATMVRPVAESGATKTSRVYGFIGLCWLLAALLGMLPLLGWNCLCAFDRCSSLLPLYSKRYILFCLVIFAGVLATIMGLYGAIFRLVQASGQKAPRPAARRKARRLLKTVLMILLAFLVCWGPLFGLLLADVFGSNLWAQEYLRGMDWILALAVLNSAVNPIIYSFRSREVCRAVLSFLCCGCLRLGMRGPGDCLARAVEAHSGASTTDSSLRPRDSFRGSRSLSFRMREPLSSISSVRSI

O=C(CSc1nc(O)c2ccccc2n1)NCc1ccc(Cl)cc1
active: CC50 [1] > 100 µM | CC50 [2] > 100 µM | CC50 [3] > 100 µM | CC50 [4] > 100 µM

Cc1ccc(C(=O)N[C@@H](C)CN2CCC(n3c(=O)[nH]c4c(F)cccc43)CC2)cc1
active: IC50 [5] 20 µM | IC50 [6] 0.222 µM

COc1cc(-c2oc3cc(O)cc(O)c3c(=O)c2O[C@@H]2O[C@H](COC3O[C@@H](C)[C@H](O)[C@@H](O)[C@H]3O)[C@@H](O)[C@H](O)[C@H]2O)ccc1O (stereo partly specified)
active: AC50 [7] 7.96 µM | AC50 [8] 4.62 µM

O=C(N/N=C/c1cn(-c2ccccc2)nc1-c1ccc2c(c1)OCCO2)c1ccncc1
inactive: EC50 [9] > 54.7 µM | EC50 [11] > 54.7 µM | EC50 [12] > 54.7 µM | IC50 [13] 29.2 µM
active: IC50 [10] 6.51 µM

Cc1ccc(C)c(NC(=O)C2CC3CCC2C3)c1 (stereo unspecified)
active: EC50 [14] 0.402 µM | EC50 [15] 2.68 µM | EC50 [16] 0.396 µM | EC50 [17] 5.03 µM | EC50 [18] 1.63 µM | EC50 [19] 2.64 µM

COc1ccc(CN2CCc3c([nH]c4ccccc34)C2)c(OC)c1C
active: AC50 [20] 1.68 µM | EC50 [24] 8.4 µM
inactive: EC50 [21] 47.6 µM | EC50 [22] 74.3 µM | EC50 [23] > 30.8 µM

CC1CCCCC1N(C(=O)c1cc(C2CC2)on1)C1CCCCC1C (stereo unspecified)
inactive: EC50 [25] > 50 µM | EC50 [26] > 50 µM

COc1ccc(C(NC(=O)c2ccccc2)c2ccc3cccnc3c2O)cc1 (stereo unspecified)
inactive: IC50 [28] 23.2 µM
active: IC50 [27] 2.67 µM | IC50 [29] 6.26 µM

Nc1n[nH]c2cccc(-c3ccc(NC(=O)Nc4cccc(C(F)(F)F)c4)c(F)c3)c12
active: Ki [30] 0.316 µM | Ki [31] 0.00316 µM | Ki [32] 0.000316 µM | Ki [33] 0.00251 µM | Ki [34] 0.1 µM | Ki [35] 0.000794 µM | Ki [36] 0.158 µM | Ki [37] 0.2 µM | Ki [38] 0.251 µM | Ki [39] 0.00316 µM | Ki [40] 0.00316 µM | Ki [41] 0.0398 µM
